Values quoted from earlier work as cited in patent US20140255982A1, “METHOD OF CANCER DIAGNOSIS USING THE ANALYSIS OF ISOTOPES” (priority 2007, published 2014).

Experiments:
rats = conditions: within 5 days; deuterium in the form of D2O
microorganisms = conditions: deuterium in the form of D2O

[2H]O[2H] [D2O]
kill rate of rats (rats): 99.5%
inhibitory activity against microorganisms (microorganisms): 92%
